Test results from a melting point compilation (Tetko et al.; mined from patent text by program, amines drawn as free bases though some values may be those of a salt).

SMILES	melting point [°C]
CC12CC(O)C3(F)C(CCC4=CC(=O)C=CC43C)C1CC=C2SCOC(=O)c1ccccc1 (configuration not stated)	220 to 222
CCOCc1nc2c(N)nc3cc(NS(=O)(=O)CC)ccc3c2n1CC(C)(C)O	124 to 127
CCc1cccc2c(/C=C/C(=O)N3CCCCC3)cc(OC)c(O)c12	85 to 86
O=S(=O)(NCCn1ccnc1)c1ccc(Br)cc1	165 to 167
CC(CCC(O)C(C)(C)O)C1CCC2C3CCC4CC(O)CCC4(C)C3CCC12C (configuration not stated)	152 to 154
CCS(=O)(=O)c1ccc2c3c(cccc13)C(=O)N2	270 to 272
CCCCCCCCCCCCC(C(=O)O)C(O)(CC(=O)O)C(=O)O (configuration not stated)	75.4 to 76.1
COc1ccc(N2CCN(c3c(C)c(C)c4c(c3C)C(O)(c3ccoc3)C(C)(C)O4)CC2)cc1 (configuration not stated)	148 to 149
CC1(C)CC(=O)Nc2cc3nc(-c4ccc(OS(C)(=O)=O)cc4)[nH]c3cc21	209 to 215
CCOC(=O)c1cnc2nc(N3CCN(C)CC3)ncc2c1OCC	105 to 108
COc1ccc2ncn(C3CCN(C(C)c4ccccc4)CC3)c(=O)c2c1 (configuration not stated)	124
CC[C@H]1CN(c2ccc(-c3ccnc(Nc4cc(OC)c(OC)c(OC)c4)n3)cn2)CCN1	82 to 83
CC1=C(CC(=O)O)c2cc(F)ccc2C1=Cc1ccc(S(C)(=O)=O)cc1	204 to 206
O=C(CC1CCCCCC1=O)c1ccc([N+](=O)[O-])cc1 (configuration not stated)	79 to 84
Cc1ccnc(NCCSCc2nc[nH]c2C)c1C(=O)O	143
CC(Cc1c[nH]c2ccccc12)NC(=O)C=C1CCC(c2ccccc2)(N(C)C)CC1 (configuration not stated)	184 to 187
COc1cc(C)ccc1Oc1ccc(Br)cc1O	75 to 76
CCC(=O)NNC(=O)c1ccncc1	131
CCn1c(COC(=O)NC(C)=O)nc(C(C)C)c1Sc1cc(Cl)cc(Cl)c1	163 to 164
CCCOc1ccc(C(=O)CBr)cc1	36 to 38
Nc1ccc2ccccc2c1-c1c(P(c2ccccc2)c2ccccc2)ccc2ccccc12	105
S=C1CC(c2ccccc2)=Nc2ccccc2N1	228 to 230
CSc1cc(CBr)cc(SC)c1	76 to 77
N#CCc1cnn2ccc3c(c12)CCO3	165 to 166

SMILES	melting point [°C]
CC(=O)c1ccc(C#Cc2ccc(C(C)=O)s2)s1	214
CC(=O)c1sc2c(Br)cccc2c1C	105 to 107
O=C(O)C(Cc1cccnc1)C(=O)O	128 to 129
C=CCN(c1ccccc1C=C(SC)S(C)=O)c1c(Cl)cccc1Cl (configuration not stated)	104 to 107
COc1cc(C(C)C)c(Oc2cnc(N)nc2N)cc1-c1ccco1	199 to 203
O=C(O)c1ccc(Sc2ccc(OCc3ccc4ccccc4n3)cc2)cc1	195 to 197
N#Cc1[nH]c(Br)c([N+](=O)[O-])c1Br	170 to 175
COc1ccc(C(=O)NCCCCCCCCCCCCNC(=O)c2ccc(OC)cc2)cc1	169 to 170
CCOP(=O)(CNCc1cccnc1-c1cc(C(C)(C)C)c(O)c(C(C)(C)C)c1)OCC	100 to 101
CC1CC2OC2C=CC=CC(=O)Cc2c(Cl)c(O)cc(O)c2C(=O)O1 (configuration not stated)	195
CCOC(=O)c1c(C)nc(N2CCN(C)CC2)c([N+](=O)[O-])c1N	73 to 75
CN(C)C(=O)Nc1ccc(O)c([N+](=O)[O-])c1	142
CC(C)Cn1c(=O)n(C)c(=O)c2cc(Cc3ccccc3)sc21	72 to 73
CN1C(=O)N(CC2=C(CC3CCCC3)C(=O)OC2)C(=O)C1(C)C	77 to 79
O=S1(=O)NC=Nc2c(Br)cc(Br)cc21	289 to 292
c1ccc(-c2cc3n(n2)Cc2ccccc2-3)cc1	183 to 184
CC(C)c1cccc(C(C)C)c1NC(=O)CN1CCCN(CCCSc2nc3ccccc3o2)CC1	109 to 111
CS(=O)(=O)CCCn1c(=N)sc2cc(OC(F)(F)F)ccc21	180
CC(NC(=O)C(CS)Cc1ccccc1)C(=O)O (configuration not stated)	120 to 124
CNC(=O)Oc1ccc(C2CCC(=O)N2CCN2CCOCC2)cc1 (configuration not stated)	119 to 120
CC1(C)SCNC1C(=O)O (configuration not stated)	209 to 210
O=C1c2ccccc2C2(O)Oc3cc4ccccc4cc3C12O (configuration not stated)	220 to 221
Cc1nc2cc3c(cc2s1)C1(CO3)C(=O)N(Cc2ccccn2)c2ccccc21 (configuration not stated)	249 to 250
CCCCCCc1cc2c(s1)-n1c(C)nnc1CN=C2c1ccc(C)c(C)c1	98 to 100

SMILES	melting point [°C]
O=C1c2ccccc2C(=O)c2c(Nc3ccc(O)cc3)ccc(Nc3ccc(O)cc3)c21	340 to 342
CCCC(=O)Nc1c(C)c(C)c2c(c1C)C(c1ccc(C)cc1)C(C)(C)O2 (configuration not stated)	138 to 139
CC(=O)c1nc(-c2ccccn2)[nH]c1C	145 to 147
CNC(=O)Nc1ccc2c(c1)C(=O)NC(=O)C2(C)C	257 to 258
COc1nc(C)nc(NC(=O)NS(=O)(=O)c2cccc3c2nnn3C)n1	134 to 136
COc1ccc(S(=O)(=O)Oc2cccc(OS(=O)(=O)c3ccc(OC)cc3)c2)cc1	81 to 84
CCCCOc1ccc(S(=O)(=O)C2(C(=O)O)CCN(Cc3ccccc3)CC2)cc1	144
COC(C)c1cc(S(N)(=O)=S)sc1C (configuration not stated)	86 to 94
CCCCc1c2c(nc3c1CCCC3)CCCC2	35 to 37
Cc1cc(SC(C)C)c(NC(=O)CCCCCCSc2nc3ccccc3o2)c(SC(C)C)n1	76 to 78
COc1cc(O)c2c(c1C)C(=O)SCC(=O)N[C@@H](c1nc(C)no1)COC2	194 to 196
CC1(C)Oc2ccc(C#N)cc2C(OC(=O)C2CCCN2S(=O)(=O)c2ccc([N+](=O)[O-])cc2)C1Br (configuration not stated)	177 to 180
CCC(CC)n1ncn(-c2ccc(N3CCNCC3)cc2)c1=O	135 to 137
C=CCOc1ccc(C[C@H](N)C(=O)NC(=O)OC(C)(C)C)cc1	145
CCCOc1ccnc2[nH]cc(-c3ccnc(N)n3)c12	> 210
COc1cc(C(=O)O)cc2c1C(=O)c1ccccc1CC2	222 to 227
CCCCCCCCCCCCC(O)CN(CCC#N)CCCCCCCCCCCCN(CCC#N)CC(O)CCCCCCCCCCCC (configuration not stated)	37 to 38
Cc1c(F)c(F)c(F)c2c1c(=O)c(C(=O)O)cn2-c1ccc(F)cc1F	221 to 222
Brc1ccc2ccsc2c1	53 to 55
O=C(NC1CCCCC1)c1c(O)c2cccnc2n(Cc2ccccc2)c1=O	143
CCSc1cc(C)nc(SCC)c1NC(=O)CCCCCCCSc1nc2ccccc2o1	82 to 84
O=C(CBr)Nc1coc2ccccc2c1=O	198
CCCCC(O)CN1N=CCCC1c1ccc(F)cc1 (configuration not stated)	75 to 77

Other lines, results leading:

melting point [°C]	SMILES
164 to 165	Cc1ccc(-c2nn3cccnc3c2CC(=O)N(C)C)cc1
156 to 158	CCC(C(=O)O)N(C(=O)c1cn(-c2cccc(C(F)(F)F)c2)nc1C)c1ccc(OCC(C)(C)C)c(C#N)c1 (configuration not stated)
116 to 117	O=C(O)C1=C(c2ccccc2)C(c2ccccc2)OC1=O (configuration not stated)
150	CCOC(=O)C1(c2ccc(Cl)cc2)OCC(c2ccc(F)cc2)(c2ccc(F)cc2)CO1
123 to 125	CCCCc1c(C(=O)O)ccc2ccc(OC)cc12
226 to 230	Nc1cccc2c1=NC(=O)C=2c1ccccc1
161 to 162	O=[N+]([O-])c1ccc(S(=O)(=O)NCc2ccc(Cl)cc2)c([N+](=O)[O-])c1
61	CCOC(=O)c1ccc(OCCCCc2cc(C)no2)cc1
132 to 134	Cn1cc(-c2cccc(C(F)(F)F)c2)c(=O)o1
112 to 116	O=C(O)c1ccccc1C(=O)c1ccccc1Cl
229 to 232	Nc1ccc(-c2cc3c(Nc4ccc(Cl)cc4F)ncnc3o2)cc1
110	CCOC(=O)c1cc(O)c(C(=O)NCc2ccccc2)cc1O
80	Cn1cncc1C(O)(c1ccc(Cl)cc1)c1ccc2nc(C=CC(N)=O)cc(-c3cccc(Cl)c3)c2c1 (configuration not stated)
150 to 152	CCOC(=O)c1coc(-c2ccc(Cn3cnc4ccccc43)cc2)n1
88 to 95	Cc1noc(NS(=O)(=O)c2ccccc2-c2ccc(-c3ncco3)cc2Cc2ncco2)c1C
208 to 209	Nc1ncc(-c2cccc(Nc3ccc(-c4ccoc4)cc3N)c2)cn1

melting point [°C]	SMILES
166 to 168	O=C(NC1CCCC1)c1ccc(-c2ccc3nnn(Cc4ccc5ncccc5c4)c3n2)cc1F
201 to 202	O=C(O)c1cc(-c2ccc(Cl)cc2)nc(-c2ccc(Oc3ccc(F)cc3)cc2)c1
152 to 153	CC(C)Oc1c(-c2ccc(S(C)(=O)=O)cc2)cnn(CC(F)(F)F)c1=O
190 to 193	CNc1nc(Cl)cc(NS(=O)(=O)c2cccc(C(F)(F)F)c2)n1
165	O=C(c1ccccc1O)c1cccc2[nH]ccc12
162 to 165	Cc1nc(NC(=O)c2cccc(F)c2)sc1C(=O)NCc1ccccc1
80 to 81	O=C(CCc1conc1-c1ccc(Cl)cc1)NCc1cccc(C(F)(F)F)c1
213	N=C(NO)c1ncn2c(C(F)(F)F)cc(-c3ccc(C(F)(F)F)cc3)nc12
176 to 178	CNC(=O)c1cccc(NC(=O)Cc2cccc(Br)c2)c1
54	Fc1ccc2occ(CCN3CCN(c4cccc5cccnc45)CC3)c2c1
196 to 200	N#Cc1cc(-c2c(-c3ccccc3)nn3ccccc23)cn(CCC(=O)O)c1=O
75 to 80	CC(=O)NC1C(C)(C)c2ccc(CCN3CCN(c4nsc5ccccc45)CC3)cc2C1(C)C (configuration not stated)
246 to 250	Cc1ccc(-c2ccc3cc(C(=O)Nc4ccc(CN(C)C5CCOCC5)cc4)[nH]c3c2)cc1
76 to 77	O=C(O)CCCCCCC(=NOCc1ccc(OCc2noc(-c3ccccc3)n2)cc1)c1ccccc1
268 to 275	CC(=O)Nc1ccc(-c2c[nH]c(=O)cn2)cc1
